Source: patent US20230416238A1, “N-[(1,3-BENZOXAZOL-2-YL)-HETEROCYCLE]AMIDE DERIVATIVES FOR THE TREATMENT AND PROPHYLAXIS OF HEPATITIS B VIRUS INFECTION” (Hoffmann-La Roche Inc., priority 2020, published 2023)

Key:
Assay type in all cases: cell-based
[1] = Cytotoxicity in PHH natural infection assay (Cell Counting Kit-8); details: HBV-infected primary human hepatocytes, CCK8
Method: (§1) Detailed procedures regarding primary human hepatocyte (PHH) HBV natural infection assay are described as below. One tube of frozen PHH (10 million cells) is thawed in 37° C. water bath and then transferred to 20 mL of PHH thawing medium (Sigma, InVitroGRO HT Medium, Cat. S03319) with gently mixing. The cells were then centrifuged at […] for 5 min, the supernatant was discarded and the tube was refilled with 25 mL of PHH plating medium (Sigma, InVitroGRO CP Medium, Cat. S03317). The tube was shaken very gently to re-suspend all cells, and then 50 μL of cells were transferred to each well 384-well collagen I coated plate with appropriate liquid handling equipment, e.g. Integra VIAFLO384 or Agilent Bravo. The cells were then cultured for 24 hours in a cell incubator. For HBV infection, after PHH attachment on the culture plate, the plating medium was removed and replenished with PHH culture medium containing HBV virus. The PHH culture medium was prepared with Dulbecco's Modified Eagle Medium (DMEM)/F12 (1:1 in volume ratio) containing 10% fetal bovine serum (Gibco, Cat. 10099141), 5 ng/mL human epidermal growth factor (Gibco, Cat. PHG0311L), 20 ng/mL dexamethasone (Sigma, Cat. D4902-100 mg), 250 ng/mL human recombinant insulin (Gibco, Cat. 41400045) and 100 U/mL penicillin. HBV virus at 200 genome equivalent (GE) per cell with 4% PEG8000 (Sigma, Cat. P1458) containing culture medium were added to the PHH culture medium for infection. The cells were then cultured for 24 hours in cell incubator. Then the cell culture supernatant was removed. The HBV-infected PHH were cultured with sandwich culture method with MEI culture medium containing 1% DMSO and 0.25 mg/mL matrix gel for 72 hours. The supernatant was then refreshed with PHH culture medium containing different concentrations of testing compounds for two times with 72-hour interval. At the end of treatment, the supernatant was collected for viral markers measurements, including HBsAg, HBeAg, HBV DNA and cytotoxicity. HBsAg and HBeAg were detected using alphalisa method using their specific antibodies. For HBV DNA detection, HBV DNA Quantitative Fluorescence Diagnostic Kit (Sansure Biotech Inc.) was used following the manufacture's protocol. Cytotoxicity was determined using Cell Counting Kit-8 (CCK8, Dojindo Molecular Technologies, Inc.).

[2] = tested on: HBsAg; assay: PHH HBV natural infection assay, HBsAg (alphalisa); details: Hepatitis B virus, Hepatocyte, read-out: HBsAg IC50
Method: as §1
(§2) The compounds of the present invention were tested for their capacity to inhibit HBsAg and HBeAg as described herein.

[3] = tested on: HBeAg; assay: PHH HBV natural infection assay, HBeAg (alphalisa); details: Hepatitis B virus, Hepatocyte, read-out: HBeAg IC50
Method: as §1, §2

For `CS(=O)(=O)c1cc(C(=O)NC2CC3(C2)CN(c2nc4cc(Cl)ccc4o2)C3)ccn1` [Example 52, N-[2-(5-chloro-1,3-benzoxazol-2-yl)-2-azaspiro[3.3]heptan-6-yl]-2-methylsulfonyl-pyridine-4-carboxamide], the CC50 at 144 h [1] was greater than 100 µM, the IC50 [2] was 1.5 µM and the IC50 [3] was 1.26 µM.
`CCS(=O)(=O)c1cc(C(=O)NC2CC3(C2)CN(c2nc4cc(Cl)ccc4o2)C3)ccn1` [Example 53, N-[2-(5-chloro-1,3-benzoxazol-2-yl)-2-azaspiro[3.3]heptan-6-yl]-2-ethylsulfonyl-pyridine-4-carboxamide] showed a CC50 at 144 h [1] of 93.2 µM, an IC50 [2] of 1.41 µM and an IC50 [3] of 0.785 µM.
`CC(C)CS(=O)(=O)c1ccc(C(=O)NC2CC3(C2)CN(c2nc4cc(Cl)ccc4o2)C3)o1` [Example 54, N-[2-(5-chloro-1,3-benzoxazol-2-yl)-2-azaspiro[3.3]heptan-6-yl]-5-isobutylsulfonyl-furan-2-carboxamide] showed a CC50 at 144 h [1] of 84.5 µM, an IC50 [2] of 1.27 µM and an IC50 [3] of 0.828 µM.
With `O=C(NC1CC2(C1)CN(c1nc3cc(Cl)ccc3o1)C2)c1ccnc(C(F)(F)F)c1` [Example 55, N-[2-(5-chloro-1,3-benzoxazol-2-yl)-2-azaspiro[3.3]heptan-6-yl]-2-(trifluoromethyl)pyridine-4-carboxamide] the CC50 at 144 h [1] was 71.1 µM, the IC50 [2] was 1.23 µM and the IC50 [3] was 0.966 µM.
Compound `CS(=O)(=O)c1ccc(C(=O)NC2CC3(C2)CN(c2nc4cc(Cl)ccc4o2)C3)o1` [Example 56, N-[2-(5-chloro-1,3-benzoxazol-2-yl)-2-azaspiro[3.3]heptan-6-yl]-5-methylsulfonyl-furan-2-carboxamide] has a CC50 at 144 h [1] greater than 100 µM, an IC50 [2] of 1.22 µM and an IC50 [3] of 0.996 µM.
Work on `N=S(=O)(CC1CC1)c1ccc(C(=O)NC2CC3(C2)CN(c2nc4cc(Cl)ccc4o2)C3)o1` (stereo not drawn) [Example 57, N-[2-(5-chloro-1,3-benzoxazol-2-yl)-2-azaspiro[3.3]heptan-6-yl]-5-(cyclopropylmethylsulfonimidoyl)furan-2-carboxamide] yielded a CC50 at 144 h [1] greater than 100 µM, an IC50 [2] of 0.996 µM and an IC50 [3] of 0.953 µM.
Compound `CCS(=O)(=O)c1ccc(C(=O)NC2CC3(C2)CN(c2nc4cc(Cl)ccc4o2)C3)o1` [Example 58, N-[2-(5-chloro-1,3-benzoxazol-2-yl)-2-azaspiro[3.3]heptan-6-yl]-5-ethylsulfonyl-furan-2-carboxamide] has a CC50 at 144 h [1] greater than 100 µM, an IC50 [2] of 0.918 µM and an IC50 [3] of 0.812 µM.
For `O=C(NC1CC2(C1)CN(c1nc3cc(Cl)ccc3o1)C2)c1ccc(S(=O)(=O)NC2CC2)o1` [Example 59, N-[2-(5-chloro-1,3-benzoxazol-2-yl)-2-azaspiro[3.3]heptan-6-yl]-5-(cyclopropylsulfamoyl)furan-2-carboxamide], the CC50 at 144 h [1] was greater than 10 µM, the IC50 [2] was 2.84 µM and the IC50 [3] was 1.46 µM.
With `O=C(NC1CC2(C1)CN(c1nc3cc(Cl)ccc3o1)C2)c1ccc(S(=O)(=O)NC2CC(F)(F)C2)o1` [Example 60, N-[2-(5-chloro-1,3-benzoxazol-2-yl)-2-azaspiro[3.3]heptan-6-yl]-5-[(3,3-difluorocyclobutyl)sulfamoyl]furan-2-carboxamide] the CC50 at 144 h [1] was greater than 10 µM, the IC50 [2] was 2.52 µM and the IC50 [3] was 2.55 µM.
In the case of `O=C(NC1CC2(C1)CN(c1nc3cc(Cl)ccc3o1)C2)c1ccc([S+]([O-])CC2CC2)o1` (stereo not drawn) [Example 61, N-[2-(5-chloro-1,3-benzoxazol-2-yl)-2-azaspiro[3.3]heptan-6-yl]-5-(cyclopropylmethylsulfinyl)furan-2-carboxamide], the CC50 at 144 h [1] is reported as 96 µM, the IC50 [2] is reported as 0.189 µM and the IC50 [3] is reported as 0.402 µM.
In the case of `CC(C)C[S+]([O-])c1ccc(C(=O)NC2CC3(C2)CN(c2nc4cc(Cl)ccc4o2)C3)o1` (stereo not drawn) [Example 62, N-[2-(5-chloro-1,3-benzoxazol-2-yl)-2-azaspiro[3.3]heptan-6-yl]-5-isobutylsulfinyl-furan-2-carboxamide], the CC50 at 144 h [1] is reported as 77.4 µM, the IC50 [2] is reported as 0.449 µM and the IC50 [3] is reported as 0.393 µM.
With `C[S@@](=N)(=O)c1ccc(C(=O)NC2CC3(C2)CN(c2nc4cc(Cl)ccc4o2)C3)o1` [Example 63, N-[2-(5-chloro-1,3-benzoxazol-2-yl)-2-azaspiro[3.3]heptan-6-yl]-5-[(R)-methylsulfonimidoyl]furan-2-carboxamide] the CC50 at 144 h [1] was greater than 100 µM, the IC50 [2] was 2.47 µM and the IC50 [3] was 1.42 µM.
Work on `C[S+]([O-])c1ccc(C(=O)NC2CC3(C2)CN(c2nc4cc(Cl)ccc4o2)C3)o1` (stereo not drawn) [Example 64, N-[2-(5-chloro-1,3-benzoxazol-2-yl)-2-azaspiro[3.3]heptan-6-yl]-5-methylsulfinyl-furan-2-carboxamide] yielded a CC50 at 144 h [1] greater than 100 µM, an IC50 [2] of 2.52 µM and an IC50 [3] of 1.54 µM.
`O=C(NC1CC2(C1)CN(c1nc3cc(Cl)ccc3o1)C2)c1ccc(S(=O)(=O)CC2CC2)o1` [Example 65, N-[2-(5-chloro-1,3-benzoxazol-2-yl)-2-azaspiro[3.3]heptan-6-yl]-5-(cyclopropylmethylsulfonyl)furan-2-carboxamide] gave a CC50 at 144 h [1] of 92.3 µM, an IC50 [2] of 0.806 µM and an IC50 [3] of 1.07 µM.
Compound `O=C(NC1CC2(C1)CN(c1nc3cc(Cl)ccc3o1)C2)c1ccnc(S(=O)(=O)C2CC2)c1` [Example 66, N-[2-(5-chloro-1,3-benzoxazol-2-yl)-2-azaspiro[3.3]heptan-6-yl]-2-cyclopropylsulfonyl-pyridine-4-carboxamide] has a CC50 at 144 h [1] of 84.2 µM, an IC50 [2] of 0.781 µM and an IC50 [3] of 0.608 µM.
In the case of `CC1(NC(=O)c2ccc(S(C)(=O)=O)o2)CC2(CN(c3nc4cc(Cl)ccc4o3)C2)C1` [Example 67, N-[2-(5-chloro-1,3-benzoxazol-2-yl)-6-methyl-2-azaspiro[3.3]heptan-6-yl]-5-methylsulfonyl-furan-2-carboxamide], the CC50 at 144 h [1] is reported as greater than 100 µM, the IC50 [2] is reported as 1.77 µM and the IC50 [3] is reported as 2.13 µM.
Compound `CC1(NC(=O)c2ccnc(C(F)(F)F)c2)CC2(CN(c3nc4cc(Cl)ccc4o3)C2)C1` [Example 68, N-[2-(5-chloro-1,3-benzoxazol-2-yl)-6-methyl-2-azaspiro[3.3]heptan-6-yl]-2-(trifluoromethyl)pyridine-4-carboxamide] has a CC50 at 144 h [1] of 86.9 µM, an IC50 [2] of 4.35 µM and an IC50 [3] of 4.69 µM.
Compound `O=C(NC1CCC2(C1)CN(c1nc3cc(Cl)ccc3o1)C2)c1ccc(C(F)(F)F)o1` (stereo not drawn) [Example 69, N-[2-(5-chloro-1,3-benzoxazol-2-yl)-2-azaspiro[3.4]octan-6-yl]-5-(trifluoromethyl)furan-2-carboxamide] has a CC50 at 144 h [1] of 83.2 µM, an IC50 [2] of 4.41 µM and an IC50 [3] of 4.01 µM.
For `O=C(NC1CCC2(CC1)CN(c1nc3cc(Cl)ccc3o1)C2)c1ccc(C(F)(F)F)o1` [Example 70, N-[2-(5-chloro-1,3-benzoxazol-2-yl)-2-azaspiro[3.5]nonan-7-yl]-5-(trifluoromethyl)furan-2-carboxamide], the CC50 at 144 h [1] was greater than 100 µM, the IC50 [2] was 6.09 µM and the IC50 [3] was 2.96 µM.
`O=C(NC1CC2(CCN(c3nc4cc(Cl)ccc4o3)C2)C1)C1CCS(=O)(=O)C1` (stereo not drawn) [Example 71, N-[6-(5-chloro-1,3-benzoxazol-2-yl)-6-azaspiro[3.4]octan-2-yl]-1,1-dioxo-thiolane-3-carboxamide] gave a CC50 at 144 h [1] of 94.1 µM, an IC50 [2] of 8.21 µM and an IC50 [3] of 5.96 µM.
For `O=C(NC1CC2(CCN(c3nc4cc(Cl)ccc4o3)C2)C1)c1ccc(C(F)(F)F)o1` (stereo not drawn) [Example 72, N-[6-(5-chloro-1,3-benzoxazol-2-yl)-6-azaspiro[3.4]octan-2-yl]-5-(trifluoromethyl)furan-2-carboxamide], the CC50 at 144 h [1] was 81.4 µM, the IC50 [2] was 7.9 µM and the IC50 [3] was 4.36 µM.
